Assay results: patent US4603142A, “Cholesterol lowering method of use” (Wisconsin Alumni Research Foundation, priority 1984, dated 1986)

Key:
HMG-CoA reductase = target: T1, HMG-CoA reductase (Homo sapiens, UniProt P04035); assay: Hepatic HMG-CoA reductase activity in 3-week-old broiler male chickens fed supplemented corn diet; assay type: in vivo, chicken; design: preparing subcellular fractions of liver and assay procedures for beta-hydroxy-beta-methylglutaryl coenzyme A (HMG Co-A) reductase; from tissue; host or cells: chicken liver (microsomal fraction); conditions: liver; for HMG-CoA Reductase: mean ± SD, N = 9
T1 sequence (P04035 1-888): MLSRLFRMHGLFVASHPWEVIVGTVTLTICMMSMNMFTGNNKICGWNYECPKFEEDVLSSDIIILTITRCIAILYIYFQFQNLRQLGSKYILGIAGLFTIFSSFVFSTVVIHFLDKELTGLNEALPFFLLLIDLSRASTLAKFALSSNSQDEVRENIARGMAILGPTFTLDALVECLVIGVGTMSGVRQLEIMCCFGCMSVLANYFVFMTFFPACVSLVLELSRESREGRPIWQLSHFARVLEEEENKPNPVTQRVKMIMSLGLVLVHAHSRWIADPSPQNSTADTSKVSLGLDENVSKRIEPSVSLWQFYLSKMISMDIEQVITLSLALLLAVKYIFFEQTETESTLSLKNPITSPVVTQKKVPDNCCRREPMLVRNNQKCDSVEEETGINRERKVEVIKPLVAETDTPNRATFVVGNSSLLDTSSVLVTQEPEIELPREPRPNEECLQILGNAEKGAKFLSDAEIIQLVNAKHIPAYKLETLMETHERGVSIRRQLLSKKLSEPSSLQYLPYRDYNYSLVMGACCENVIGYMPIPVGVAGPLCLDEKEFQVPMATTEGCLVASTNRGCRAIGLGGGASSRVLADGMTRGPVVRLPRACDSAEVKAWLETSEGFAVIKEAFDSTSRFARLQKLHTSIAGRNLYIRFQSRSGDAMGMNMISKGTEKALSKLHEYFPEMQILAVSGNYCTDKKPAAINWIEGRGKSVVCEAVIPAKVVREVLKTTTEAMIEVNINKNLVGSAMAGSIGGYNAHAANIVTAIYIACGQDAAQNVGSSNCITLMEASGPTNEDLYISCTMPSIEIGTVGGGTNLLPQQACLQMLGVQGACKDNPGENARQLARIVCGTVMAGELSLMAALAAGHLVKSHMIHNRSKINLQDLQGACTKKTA
Source text: These responses were attributed to the presence in the small grains of relatively high concentrations of beta-D-glucans and pentosans. A long-standing interest in lipid metabolism prompted us to examine certain lipogenic and cholesterolgenic enzymes in the tissues of these birds. Methods used for handling blood samples, preparing subcellular fractions of liver and assay procedures for beta-hydroxy-beta-methylglutaryl coenzyme A (HMG Co-A) reductase, fatty acid synthetase (FAS), plasma cholesterol and triglycerides and the statistical treatment of the data have been described [Qureshi AA et al. (1980): Regulation of lipid metabolism in chicken livers by dietary cereals, J Nutr 110:388-393].
For large scale preparation of these compounds, 10 grams of the petroleum ether soluble fraction of HPBF were dissolved in 10 ml petroleum ether and applied to a 90×3.5 cm silicic acid column (Bio-Silica, 100-200 mesh). The column was washed with 2,500 ml petroleum ether followed by stepwise elution with increasing amounts of ether in petroleum ether. Fraction 8 of the column corresponded to HPLC fraction 5. A concentration-dependent suppression of HMG Co-A reductase activity and enhancement of FAS activity was noted within this range. Serum total and LDL cholesterol levels also fell in a dose-dependent response. […] In a companion experiment, using the same control birds, the effect of cholesterol inhibitor I at 5 ppm is compared to the effect of the petroleum ether solubles of HPBF at 20% equivalent on weight gain, HMG Co-A reductase and FAS activities, serum cholesterol and serum triglyceride levels (Table 2). […] Serum triglyceride levels reflected the influence of the diet on FAS activity. […] Cholesterol inhibitor I was a more powerful suppressor of LDL cholesterol (Table 2).
^1 Feeding period was 3 weeks; Time of killing was 0800; Data
expressed as mean ± SD; N = 9 chickens per group; HMGCoA reductase =
hydroxy-methyl-Glutaryl-Coenzyme A reductase.
^2 pmoles of mevalonic acid synthesized per minute per mg of […]

Fatty Acid Synthetase = assay: In vitro fatty acid synthetase activity in isolated hepatocytes of chicken; assay type: cell-based; conditions: incubation 15 minutes; for Fatty Acid Synthetase: means of two replicates
Source text: These observed effects on lipogensis and cholesterogenesis could be attributed to the chemical constituents of HPBF, but clearly could not be attributed to the water insoluble plant fibers because they were not present in the latter feeding trials. Moreover, these effects were also obtained in vitro using isolated hepatocytes from chickens and rats. […] Proc. 42:1973 (Abstr.)]. Conditions for the in vitro evaluation of the solvent extracts have been described [Qureshi AA et al. (1983): Inhibition of cholesterol and fatty acid biosynthesis in liver enzymes and chicken hepatocytes by polar fractions of garlic, Lipids 18:343-348].
Cholesterol inhibitor I was re-chromatographed by HPLC and the UV absorption spectrum obtained. Maximum absorption occurred at 292 nm. This purified fraction was used for high resolution mass spectrometric analysis. Several scans were made using ionization temperatures from 90-180 degrees Centigrade to increase the possibility of detecting impurities. The high resolution mass spectrometric analysis and measurements of different peaks gave a molecular ion peak at m/e 424 and main peaks at m/e 385, 205 and 165 corresponding to C29 H44 O2 (molecular formula) C25 H36 O2, C13 H17 O2 and C10 H13 O2 moieties, respectively, which are characteristic fragmentation moieties for d-alpha-tocotrienol. Lemon grass oil is a rich source of d-alpha-tocotrienol. This product and cholesterol inhibitor I at 20 ppm were compared with the petroleum ether soluble fraction of HPBF (20% equivalent HPBF) in a group of older male White Leghorn chickens (Table 3). The results shown on Table 3 confirm those previously recorded for petroleum ether solubles of HPBF and cholestrol inhibitor I. In a final experiment, the effects of cholestrol inhibitor I and lemon grass oil on hepatocyte HMG Co-A reductase and FAS activities were tested. Both components tested in the concentration range 5-100 microgram/ml, produced a concentration-dependent suppression of HMG Co-A reductase and concentration-dependent enhancement of FAS activity (Table 4).
^1 Tenweek-old female chickens were fed standard cornsoy diet. They
were fasted for 48 hrs. and refed 72 hrs. prior to the preparation of
^2 Incubation period was 15 minutes. Values represent means of two
replicates within incubation set.
^4 nmoles of NADPH oxidized per minute per mg of cytosolic fraction.

[1] = 2.5 ppm in corn diet, fed 3 weeks
[2] = 5.0 ppm in corn diet, fed 3 weeks
[3] = 10.0 ppm in corn diet, fed 3 weeks
[4] = 15.0 ppm in corn diet, fed 3 weeks
[5] = 20.0 ppm in corn diet, fed 3 weeks

CC(C)=CCC/C(C)=C/CC/C(C)=C/CC[C@]1(C)CCc2c(C)c(O)c(C)c(C)c2O1 [Cholesterol inhibitor I, 2,5,7,8-tetramethyl-2 (4,8, 12-trimethyltrideca-3,7, 11-trienyl)chroman-6-ol]
HMG-CoA Reductase, percentage of control (HMG-CoA reductase; [1]): 87 Percentage of respective contr
HMG-CoA Reductase (HMG-CoA reductase; [1]): 172 ± 12 pmoles of mevalonic acid synth
HMG-CoA Reductase, percentage of control (HMG-CoA reductase; [2]): 81 Percentage of respective contr
HMG-CoA Reductase (HMG-CoA reductase; [2]): 161 ± 12 pmoles of mevalonic acid synth
HMG-CoA Reductase, percentage of control (HMG-CoA reductase; [3]): 73 Percentage of respective contr
HMG-CoA Reductase (HMG-CoA reductase; [3]): 144 ± 9 pmoles of mevalonic acid synth
HMG-CoA Reductase, percentage of control (HMG-CoA reductase; [4]): 68 Percentage of respective contr
HMG-CoA Reductase (HMG-CoA reductase; [4]): 135 ± 8 pmoles of mevalonic acid synth
HMG-CoA Reductase, percentage of control (HMG-CoA reductase; [5]): 66 Percentage of respective contr
HMG-CoA Reductase (HMG-CoA reductase; [5]): 130 ± 6 pmoles of mevalonic acid synth
HMG-CoA Reductase (HMG-CoA reductase; corn diet + 5 ppm (Table 2)): 134 ± 6 pmoles of mevalonic synthesize
Fatty Acid Synthetase, percentage of control (Fatty Acid Synthetase; 5 μg/ml): 122 Percentage of respective contr
Fatty Acid Synthetase (Fatty Acid Synthetase; 5 μg/ml): 88 nmoles of NADPH oxidized per m
Fatty Acid Synthetase, percentage of control (Fatty Acid Synthetase; 10 μg/ml): 135 Percentage of respective contr
Fatty Acid Synthetase (Fatty Acid Synthetase; 10 μg/ml): 97 nmoles of NADPH oxidized per m
Fatty Acid Synthetase, percentage of control (Fatty Acid Synthetase; 15 μg/ml): 156 Percentage of respective contr
Fatty Acid Synthetase (Fatty Acid Synthetase; 15 μg/ml): 112 nmoles of NADPH oxidized per m
Fatty Acid Synthetase, percentage of control (Fatty Acid Synthetase; 20 μg/ml): 175 Percentage of respective contr
Fatty Acid Synthetase (Fatty Acid Synthetase; 20 μg/ml): 126 nmoles of NADPH oxidized per m
Fatty Acid Synthetase, percentage of control (Fatty Acid Synthetase; 25 μg/ml): 188 Percentage of respective contr
Fatty Acid Synthetase (Fatty Acid Synthetase; 25 μg/ml): 135 nmoles of NADPH oxidized per m
Fatty Acid Synthetase, percentage of control (Fatty Acid Synthetase; 50 μg/ml): 188 Percentage of respective contr
Fatty Acid Synthetase (Fatty Acid Synthetase; 50 μg/ml): 148 nmoles of NADPH oxidized per m
Fatty Acid Synthetase, percentage of control (Fatty Acid Synthetase; 100 μg/ml): 214 Percentage of respective contr
Fatty Acid Synthetase (Fatty Acid Synthetase; 100 μg/ml): 154 nmoles of NADPH oxidized per m
